From article PMC10819430, “Binding Affinity and Mechanism of Six PFAS with Human Serum Albumin: Insights from Multi-Spectroscopy, DFT and Molecular Dynamics Approaches” (Toxics, 2024)
“And” between values parts separate entries of the source, which are not always exact repeats. Equal values may be shown once.

Assays:
[1] = biological target: T1, Human Serum Albumin (HSA) (Homo sapiens, UniProt P02768); assay: Fluorescence quenching of HSA by PFAS (Stern–Volmer, double logarithmic and Van't Hoff analysis); type: binding; conditions: for quenching of HSA fluorescence intensity: PFAS 1.8 × 10^−5 mol·L^−1, HSA 1 × 10^−6 mol·L^−1, 298 K; for ΔH / ΔS: Van't Hoff, 298–310 K; for affinity for HSA: fluorescence quenching experiments; for main interaction force from thermodynamic analysis: signs of ΔH and ΔS
T1 construct: HSA (≥96%) and six PFAS were all purchased from Aladdin Chemicals (Shanghai, China); purchased Aladdin Chemicals (Shanghai, China)
T1 sequence (P02768 25-609): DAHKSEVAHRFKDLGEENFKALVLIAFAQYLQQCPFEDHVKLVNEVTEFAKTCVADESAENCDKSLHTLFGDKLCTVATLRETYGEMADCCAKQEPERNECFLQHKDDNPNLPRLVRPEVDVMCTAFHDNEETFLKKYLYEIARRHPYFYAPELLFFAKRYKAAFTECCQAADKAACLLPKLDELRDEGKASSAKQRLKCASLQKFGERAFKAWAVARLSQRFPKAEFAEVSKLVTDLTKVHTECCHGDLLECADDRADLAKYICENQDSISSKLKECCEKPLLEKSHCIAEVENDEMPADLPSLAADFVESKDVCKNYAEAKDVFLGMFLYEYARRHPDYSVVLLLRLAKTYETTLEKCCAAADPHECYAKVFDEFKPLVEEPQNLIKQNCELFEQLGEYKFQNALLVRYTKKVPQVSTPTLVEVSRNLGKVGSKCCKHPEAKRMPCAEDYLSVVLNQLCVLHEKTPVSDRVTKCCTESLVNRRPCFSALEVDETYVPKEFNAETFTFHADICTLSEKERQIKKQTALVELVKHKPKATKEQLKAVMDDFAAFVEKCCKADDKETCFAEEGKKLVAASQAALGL
Procedure: Fluorescence quenching experiments greatly benefit studies on the interactions between ligands and proteins. Initially, 3 mL of HSA stock solution was put into a 10 mm square quartz cuvette. Following that, PFAS stock solution was gradually added to achieve various final concentrations, namely 0, 3, 6, 9, 12, 15, 18 × 10^−6 mol·L^−1. By incrementally increasing the molar ratio of PFAS vs. HSA up to 18, their binding characteristics can be better investigated.
A thermostat (TR-01A, Bishui Corp, Beijing, China) was used to precisely control the solution temperature, which was set at 298, 304, and 310 K. This device includes a temperature controller and a metal heating cuvette module in conjunction with a fluorometer. This thermostat has a temperature range of 20–60 °C (293–333 K) and an accuracy of 0.1 °C Celsius. This step is critical for keeping the experimental conditions stable. Following that, the samples were fluorescence-scanned with a fluorometer (Cary Eclipse, Agilent, CA, USA). The excitation wavelength was set at 275 nm to efficiently stimulate tryptophan (Trp) and tyrosine (Tyr) residues. Additional test parameters include an emission of 275–500 nm, scanning rate of 1200 nm/min and PTV voltage of 700 v. Fluorescence quenching experiments were repeated three times, and the average values were taken for further calculation.
Fluorescence internal filtration (IFE) refers to the phenomenon where the fluorescence intensity decreases during fluorescence measurement due to the absorption of excitation or emission light by sample components (small molecules or proteins) in solution [19, 20]. This phenomenon is more obvious in the samples with a high concentration of adsorbent. A fluorescence correction formula was used in this study to correct the IFE effect on the data, as follows: Fcorr=Fobs×10^Aex+Aem/2 where Fcorr and Fobs are corrected and observed fluorescence emission intensities, respectively, Aex and Aem are UV-vis absorbances at the excitation and emission wavelengths.
The quenching constant can be calculated using the Stern–Volmer Equation (3). The results are shown in Table 2 and Figure 1: F0/F=1+Kqτ0=1+KsvQ where F0 and F refer to HSA fluorescence intensities without and with the quencher (PFAS solution); Kq is the biomacromolecule’s quenching rate constant; τ0 is the average fluorescence lifetime of the fluorescent molecule when the quencher PFAS is absent, usually taken as 10^−8 s; [Q] is the PFAS concentration; Ksv is the Stern–Volmer quenching constant; F0/F is the vertical axis; the Stern–Volmer curves of this system are 298, 304, and 310 K.
The double logarithmic formula can be used to calculate the binding constants and binding site numbers of HSA–PFAS complexes: logF0−F/F=logKb+nlogQ where F0 and F are parameters representing the initial fluorescence intensity and the fluorescence intensity after adding PFAS, respectively. The binding characteristics are represented by the binding constant, Kb, and the number of binding sites, n. The slope of the straight line is the number of binding sites, n, and the binding constant Kb is obtained from the exponent of the straight line’s intercept using the double logarithmic graph. Figure A2 and Table 2 show the calculation results.
The enthalpy change (∆H), entropy change (∆S), and free energy change (∆G) calculated from the Van’t Hoff equation [50] can be used to determine the type of interaction. lnKb=−ΔH/RT+ΔS/R ΔG=ΔH−TΔS=−RTlnKb where R represents the ideal gas constant (8.314 J·mol^−1·K^−1).

[2] = biological target: T2, HSA (Homo sapiens, UniProt P02768); assay: 3D-EEM fluorescence spectra of HSA–PFAS; conditions: HSA 1 × 10^−6, PFAS 1.8 × 10^−5 mol·L^−1; for 3D-EEM Peak A Intensity F: HSA alone 673.66; for 3D-EEM Peak B Intensity F: HSA alone 996.906
T2 construct: HSA (≥96%) and six PFAS were all purchased from Aladdin Chemicals (Shanghai, China); purchased Aladdin Chemicals (Shanghai, China)
T2 sequence (P02768 25-609): as above
Procedure: The 3D-EEM spectra were recorded using specific scanning parameters at the scanning rate of 2400 nm·min^−1, an […] with 5 nm increments, and an emission of 280–550 nm with 2 nm increments. The concentrations of PFAS and HSA were set at 18 × 10^−6 mol·L^−1 and 1 × 10^−6 mol·L^−1, respectively.

[3] = biological target: T2, HSA; assay: Circular dichroism (CD) spectrum, secondary structure of HSA; conditions: HSA:PFAS 1:18, 298 K; for HSA secondary structure: β-Sheet: HSA alone 4.9; for HSA secondary structure: β-Turn: HSA alone 16.9; for HSA secondary structure: Random Coil: HSA alone 36.7; for HSA secondary structure: α-Helix: HSA alone 41.6
Source text: CD measurements (190–260 nm) were taken before and after the addition of PFAS to HSA using a J-815 CD spectrometer equipped with a PMT detector (JASCO, Tokyo, Japan). The protein concentration was set at 1 × 10^−6 mol/L, with a fixed HSA-to-PFAS concentration ratio of 1:18. The scanning rate was set to 100 nm/min with 0.5 nm increments, and the photometric mode of HT. Each sample was scanned three times. The blank buffer control was automatically subtracted during the scanning process. All tests were carried out at 298 K. The CONTIN analysis method from the DichroWeb was employed to determine the contents of the protein’s secondary structure.

[4] = biological target: T2, HSA; assay: Competitive probe experiment (warfarin, ibuprofen, lidocaine); type: binding
Source text: Competitive probe experiments are commonly used to identify specific binding sites in the structure of proteins. Three probe molecules known to bind to distinct binding sites on HSA were selected: warfarin (subdomain IIA), ibuprofen (subdomain IIIA), and lidocaine (subdomain IIB). These probe molecules would compete with PFAS for the same protein sites when binding with HSA. The potential binding sites can be inferred by monitoring and comparing changes in fluorescence intensity when probe molecules are present.

Row | SMILES | fluorescence quenching mechanism [1] | quenching of HSA fluorescence intensity [1] [%] | KSV (Stern–Volmer quenching constant) ([1]; T = 298 K) | n (number of binding sites) ([1]; T = 298 K) | ΔG ([1]; T = 298 K) [kcal/mol] | Kq (quenching rate constant) ([1]; T = 298 K, τ0 taken as 10^−8 s) | KSV (Stern–Volmer quenching constant) ([1]; T = 304 K) | n (number of binding sites) ([1]; T = 304 K) | ΔG ([1]; T = 304 K) [kcal/mol] | Kq (quenching rate constant) ([1]; T = 304 K, τ0 taken as 10^−8 s) | KSV (Stern–Volmer quenching constant) ([1]; T = 310 K) | n (number of binding sites) ([1]; T = 310 K) | ΔG ([1]; T = 310 K) [kcal/mol] | Kq (quenching rate constant) ([1]; T = 310 K, τ0 taken as 10^−8 s) | ΔH [1] [kcal/mol] | ΔS [1] [J·mol^−1·K^−1] | affinity for HSA [1] | main interaction force from thermodynamic analysis [1] | 3D-EEM Peak A Position λex/λem [2] | 3D-EEM Peak B Position λex/λem [2] | also measured
1 | O=C(O)C(F)(F)C(F)(F)C(F)(F)C(F)(F)C(F)(F)C(F)(F)C(=O)O [DFSA, Dodecafluorosuberic Acid] | static quenching | 9.7 | 0.58 ± 0.06 × 10^4 L·mol^−1 | 0.88 ± 0.02 | -4.338 | 0.58 ± 0.06 × 10^12 L·mol^−1·s^−1 | 0.51 ± 0.04 × 10^4 L·mol^−1 | 0.98 ± 0.05 | -5.136 | 0.51 ± 0.04 × 10^12 L·mol^−1·s^−1 | 0.45 ± 0.05 × 10^4 L·mol^−1 | 1.13 ± 0.07 | -6.123 | 0.45 ± 0.05 × 10^12 L·mol^−1·s^−1 | 40.031 ± 1.02 | 622.5 ± 15.3 | low affinity | hydrophobic interactions | 280/336 | 230/330 | 3D-EEM Peak A Intensity F [2]: 629.75 a.u.; 3D-EEM Peak B Intensity F [2]: 839.38 a.u.; HSA secondary structure: β-Sheet [3]: 4.0%; HSA secondary structure: β-Turn [3]: 15.8%; HSA secondary structure: Random Coil [3]: 37.0%; HSA secondary structure: α-Helix [3]: 43.2%; φ (rate of decrease in Kb) ([4]; ibuprofen probe): 25.4%; φ (rate of decrease in Kb) ([4]; lidocaine probe): 31.7%; φ (rate of decrease in Kb) ([4]; warfarin probe): 93.3%
2 | O=C(O)C(F)(OC(F)(F)C(F)(OC(F)(F)C(F)(F)C(F)(F)F)C(F)(F)F)C(F)(F)F (centres unmarked) [HFPO-TA, Perfluoro-2,5-dimethyl-3,6-dioxanonanoic Acid] | mixed quenching | 25.1 | 1.78 ± 0.09 × 10^4 L·mol^−1 | 1.49 ± 0.03 | -8.956 | 1.78 ± 0.09 × 10^12 L·mol^−1·s^−1 | 1.95 ± 0.13 × 10^4 L·mol^−1 | 1.78 ± 0.07 | -11.03 | 1.95 ± 0.13 × 10^12 L·mol^−1·s^−1 | 1.98 ± 0.08 × 10^4 L·mol^−1 | 2.09 and 2.09 ± 0.08 | -13.28 | 1.98 ± 0.08 × 10^12 L·mol^−1·s^−1 | 98.506 ± 2.02 | 1508.3 ± 30.8 | high affinity | hydrophobic interactions | 280/321 | 230/314 | Kq (quenching rate constant) ([1]; 298 K): 1.78e+12 L/mol/s; HSA fluorescence peak position after PFAS addition (blue shift from 337 nm) ([1]; as the concentration of PFAS increases): 315 nm; 3D-EEM Peak A Intensity F [2]: 499.16 a.u.; 3D-EEM Peak B Intensity F [2]: 861.38 a.u.; HSA secondary structure: β-Sheet [3]: 5.1%; HSA secondary structure: β-Turn [3]: 15.8%; HSA secondary structure: Random Coil [3]: 38.5%; HSA secondary structure: α-Helix [3]: 40.6%; φ (rate of decrease in Kb) ([4]; ibuprofen probe): 23.8%; φ (rate of decrease in Kb) ([4]; lidocaine probe): 35.3%; φ (rate of decrease in Kb) ([4]; warfarin probe): 99.6%
3 | O=C(O)C(F)(F)C(F)(F)C(F)(F)C(F)(F)C(F)(F)C(F)(F)F [PFHpA, Perfluoroheptanoic Acid] | static quenching | 12.1 | 0.69 ± 0.05 × 10^4 L·mol^−1 | 0.96 ± 0.04 | -4.986 | 0.69 ± 0.05 × 10^12 L·mol^−1·s^−1 | 0.53 ± 0.07 × 10^4 L·mol^−1 | 1.42 ± 0.06 | -7.968 | 0.53 ± 0.07 × 10^12 L·mol^−1·s^−1 | 0.32 ± 0.04 × 10^4 L·mol^−1 | 1.50 ± 0.05 | -8.332 | 0.32 ± 0.04 × 10^12 L·mol^−1·s^−1 | 77.672 ± 3.399 | 1166.7 ± 42.7 | low affinity | hydrophobic interactions | 280/336 | 230/335 | 3D-EEM Peak A Intensity F [2]: 656.89 a.u.; 3D-EEM Peak B Intensity F [2]: 997.01 a.u.; HSA secondary structure: β-Sheet [3]: 5.5%; HSA secondary structure: β-Turn [3]: 15.5%; HSA secondary structure: Random Coil [3]: 39.4%; HSA secondary structure: α-Helix [3]: 39.6%; φ (rate of decrease in Kb) ([4]; ibuprofen probe): 42.7%; φ (rate of decrease in Kb) ([4]; lidocaine probe): 48.8%; φ (rate of decrease in Kb) ([4]; warfarin probe): 98.9%
